{
  "source": "patent US20160136118A1",
  "about": "“COMPOSITIONS AND METHODS FOR THE TREATMENT OF A COMMON COLD AND SYMPTOMS THEREOF” (3E THERAPEUTICS CORPORATION, priority 2007, published 2016)",
  "key": {"[1]": {"test_system": "human patients exposed to cat allergen", "test": "Single-blind study, exposure to cat allergen after contrast media pretreatment (Example 11)", "format": "in vivo", "conditions": "for Reactions on exposure to cat allergen: allergen diluted 1:10", "protocol": "A single-blind study was conducted using three human patients. The patients were exposed to cat allergen at three different dilutions, 1:1,000, 1:100, and 1:10. […] Exposure to the 1:100 dilution of allergen caused a mild reaction in all of the patients. Exposure to the 1:10 dilution of allergen caused moderate reactions in all of the patients, with one patient in particular requiring some treatment for the reaction.\nPatients were then pre-treated with VISIPAQUE®320 (iodixanol).\nPatients were pre-treated with Iotrolan 280.\nTable 1 summarizes the results and symptoms after exposure to a 1:10 dilution of cat allergen both with and without pretreatment with VISIPAQUE®320 or Iotrolan 280."}, "[2]": {"test_system": "human patients exposed to cat allergen", "test": "Single-blind study, cat allergen at three dilutions with or without pretreatment, symptoms per patient (Example 12)", "format": "in vivo", "design": "Drip / Congestion / Itch: scale not given here", "conditions": "for Itch / Sneezes / Congestion / Drip: pretreatment", "protocol": "A single-blind study was conducted using three human patients. Patients were pre-treated with VISIPAQUE®320 (Iodixanol) or not treated with contrast media. The patients were exposed to cat allergen at three different dilutions, 1:1000, 1:100, and 1:10. Patient symptoms of itch, drip, congestion, and sneeze were assessed.\nTables 2-4 show the results and symptoms after exposure to the indicated dilution of cat allergen both with and without pretreatment with VISIPAQUE®320.\nIn a similar study, patients were treated with Iotrolan 280 prior to exposure to 1:10, 1:100, or 1:1000 dilutions of cat allergen."}, "[3]": {"test_system": "histamine, dust allergen and grass allergen injected into patient's arm", "test": "Skin reaction to injected histamine, dust allergen and grass allergen after topical pretreatment of the arm (Example 13)", "format": "in vivo, human", "protocol": "FIG. 1 is a photograph showing the response of the patient to 6 injections. Three substances were each injected twice at two different locations, for a total of 6 injections. Each substance was injected at one location that had been pretreated with CHOLOGRAFIN® meglumine and at a second location that had not been pretreated. CHOLOGRAFIN® meglumine, which comprises 80% Iodipamide in emollient, was applied topically to part of a patient's arm. Forty five minutes after application of the CHOLOGRAFIN® meglumine, each of the three substances was injected into the two different locations on the arm, one pretreated and one that was not pretreated. The three substances were histamine, dust allergen, and grass allergen. Referring to FIG. 1, the two histamine injections went into the upper level of the arm, the two dust allergen injections went into the middle level of the arm, and the two grass allergen injections went into the lower level of the arm. FIG. 1 is a photograph showing the resulting reactions taken 2.5 hours after the injections. […] The reactions of upper, middle and lower levels of the arm on the untreated sides were rated with scores of 3+, 4+, and 4+, respectively. The reactions of the upper, middle and lower levels of the arm on the pretreated sides were rated with scores of 1+, 2+, and 2+, respectively."}, "[4]": {"conditions": "1:10 dilution of cat allergen, pretreatment, three human patients"}, "[5]": {"conditions": "Patient 1, 1:10 concentration cat allergen"}, "[6]": {"conditions": "Patient 1, 1:100 concentration cat allergen"}, "[7]": {"conditions": "Patient 1, 1:1000 concentration cat allergen"}, "[8]": {"conditions": "Patient 2, 1:10 concentration cat allergen"}, "[9]": {"conditions": "Patient 2, 1:100 concentration cat allergen"}, "[10]": {"conditions": "Patient 2, 1:1000 concentration cat allergen"}, "[11]": {"conditions": "Patient 3, 1:10 concentration cat allergen"}, "[12]": {"conditions": "Patient 3, 1:100 concentration cat allergen"}, "[13]": {"conditions": "Patient 3, 1:1000 concentration cat allergen"}},
  "data": [
    {"smiles": "CN(C(=O)CC(=O)N(C)c1c(I)c(C(=O)NC(CO)C(O)CO)c(I)c(C(=O)NC(CO)C(O)CO)c1I)c1c(I)c(C(=O)NC(CO)C(O)CO)c(I)c(C(=O)NC(CO)C(O)CO)c1I", "note": "(centres unmarked) [Iotrolan 280, Iotrolan]", "values": [
      {"measurement": "Reaction to the cat allergen compared to the reaction without pretreatment", "setting": "[1]; 1:10 dilution of cat allergen", "result": "decreased reaction"},
      {"measurement": "Itch", "setting": "[1]; [4]", "result": 0},
      {"measurement": "Sneezes", "setting": "[1]; [4]", "result": 2, "unit": "×"},
      {"measurement": "Reactions on exposure to cat allergen", "setting": "[1]; after pretreatment", "result": "mild reactions"}
    ]},
    {"smiles": "CC(=O)N(CC(O)CN(C(C)=O)c1c(I)c(C(=O)NCC(O)CO)c(I)c(C(=O)NCC(O)CO)c1I)c1c(I)c(C(=O)NCC(O)CO)c(I)c(C(=O)NCC(O)CO)c1I", "note": "(centres unmarked) [Visipaque 320, iodixanol]", "values": [
      {"measurement": "Reaction to the cat allergen compared to the reaction without pretreatment", "setting": "[1]; 1:10 dilution of cat allergen", "result": "decreased reaction"},
      {"measurement": "Sneezes", "setting": "[1]; [4]", "result": 2, "unit": "×"},
      {"measurement": "Reactions on exposure to cat allergen", "setting": "[1]; after pretreatment", "result": "mild reactions"},
      {"measurement": "Symptoms on exposure to cat allergen", "setting": "[1]; cat allergen diluted 1:100, after pretreatment", "result": "not associated with any symptoms"},
      {"measurement": "Symptoms in response to the cat allergen compared to the reaction without pretreatment", "setting": "[2]; 1:1000, 1:100, 1:10 dilutions, three human patients", "result": "decreased symptoms"},
      {"measurement": "Itch", "setting": "[2]; [5]", "result": 0},
      {"measurement": "Sneezes", "setting": "[2]; [5]", "result": 2, "unit": "×"},
      {"measurement": "Congestion", "setting": "[2]; [6]", "result": 0},
      {"measurement": "Drip", "setting": "[2]; [6]", "result": 0},
      {"measurement": "Itch", "setting": "[2]; [6]", "result": 0},
      {"measurement": "Sneezes", "setting": "[2]; [6]", "result": 0, "unit": "×"},
      {"measurement": "Congestion", "setting": "[2]; [7]", "result": 0},
      {"measurement": "Drip", "setting": "[2]; [7]", "result": 0},
      {"measurement": "Itch", "setting": "[2]; [7]", "result": 0},
      {"measurement": "Sneezes", "setting": "[2]; [7]", "result": 0, "unit": "×"},
      {"measurement": "Congestion", "setting": "[2]; [8]", "result": 0},
      {"measurement": "Drip", "setting": "[2]; [8]", "result": 0},
      {"measurement": "Itch", "setting": "[2]; [8]", "result": 0},
      {"measurement": "Sneezes", "setting": "[2]; [8]", "result": 0, "unit": "×"},
      {"measurement": "Congestion", "setting": "[2]; [9]", "result": 0},
      {"measurement": "Drip", "setting": "[2]; [9]", "result": 0},
      {"measurement": "Itch", "setting": "[2]; [9]", "result": 0},
      {"measurement": "Sneezes", "setting": "[2]; [9]", "result": 0, "unit": "×"},
      {"measurement": "Congestion", "setting": "[2]; [10]", "result": 0},
      {"measurement": "Drip", "setting": "[2]; [10]", "result": 0},
      {"measurement": "Itch", "setting": "[2]; [10]", "result": 0},
      {"measurement": "Sneezes", "setting": "[2]; [10]", "result": 0, "unit": "×"},
      {"measurement": "Drip", "setting": "[2]; [11]", "result": 0},
      {"measurement": "Sneezes", "setting": "[2]; [11]", "result": 2, "unit": "×"},
      {"measurement": "Congestion", "setting": "[2]; [12]", "result": 0},
      {"measurement": "Drip", "setting": "[2]; [12]", "result": 0},
      {"measurement": "Itch", "setting": "[2]; [12]", "result": 0},
      {"measurement": "Sneezes", "setting": "[2]; [12]", "result": 0, "unit": "×"},
      {"measurement": "Congestion", "setting": "[2]; [13]", "result": 0},
      {"measurement": "Itch", "setting": "[2]; [13]", "result": 0},
      {"measurement": "Sneezes", "setting": "[2]; [13]", "result": 0, "unit": "×"}
    ]},
    {"smiles": "O=C(CCCCC(=O)Nc1c(I)cc(I)c(C(=O)O)c1I)Nc1c(I)cc(I)c(C(=O)O)c1I", "note": "[iodipamide, Iodipamide]", "values": [
      {"measurement": "Reaction to histamine, dust allergen and grass allergen, pretreated versus untreated side", "setting": "[3]", "result": "decreased reaction"}
    ]}
  ]
}
